Source: a melting point compilation (Tetko et al.; mined from patent text by program, amines drawn as free bases though some values may be those of a salt)

SMILES | melting point [°C]
CCCCC(Cn1cncn1)(C(N)=O)c1ccc(Cl)cc1 (stereo unspecified) | 197 to 199
CCOC(=O)C1=C(C)NC(C)=C(C(=O)OCCN2CCN(C(c3ccc(C)cc3)c3ccc(C)cc3)CC2)C1c1cccc(Cl)c1 (stereo unspecified) | 79 to 81
CC(C)=CCCn1c(=O)sc2c(=O)[nH]c(N)nc21 | 240 to 242
CN(C)CC(=O)NCc1cccc(-c2csc(N=C(N)N)n2)n1 | 199
OCc1cccc(-c2cc3nccnc3[nH]2)c1 | 225 to 226
CCCCCCCCCCNC(=O)c1ccccc1[N+](=O)[O-] | 55 to 57
COc1cc2c(cc1O)CCC(=O)N2Cc1cc(OC)c(OC)c(OC)c1 | 157 to 158
CC(=O)Oc1c(C)c(C)c2c(c1C)CC(CCI)O2 (racemic) | 89 to 90
O=C1CC(c2cccc(-n3cncn3)c2)=Nc2ccc(-c3ccc(F)cc3)cc2N1 | 241 to 245
O=C(O)C1Cc2c(c(Cl)cc3c(-c4c(F)cccc4F)noc23)O1 (stereo unspecified) | 240 to 241
COc1ccc(-c2coc3cc(OCC(O)CNC4CCCCC4)ccc3c2=O)cc1OC (stereo unspecified) | 70 to 71
OC(COc1ncnc2nc[nH]c12)CN1CCN(C(c2ccccc2)c2ccccc2)CC1 (stereo unspecified) | 115
Cn1cnc(COc2nc3c(cc2C(C)(C)C)nnn3-c2cc(F)ccc2F)n1 | 154 to 157
C[C@H]1[C@@H](C(C)(C)O)CCN1c1ccc(C#N)cc1C(F)(F)F | 98 to 100
COc1cc2c(c(-c3ccccc3F)c1)OC(CN)C2 (stereo unspecified) | > 250
O=C(O)CC(CCCCNS(=O)(=O)c1ccc(Cl)cc1)CCCc1cccnc1 (stereo unspecified) | 95 to 97
Cc1ccc(S(=O)(=O)N2[C@@H](c3nc(C)no3)CC[C@H]2c2ccc(F)cc2)cc1 (racemic) | 128
CC(C)[C@@H](NS(=O)(=O)c1ccc2ccccc2c1)C(=O)O | 170 to 172
CCOC(=O)c1c(CN2CCOCC2)nc2cc(OC)c(OC)cc2c1-c1ccccc1OC | 153 to 154
Cn1nc(-c2ccc([N+](=O)[O-])o2)c2c(NO)ncnc21 | 294
O=Cc1ccc(OC(=O)c2ccccc2)c([N+](=O)[O-])c1 | 110 to 112
NS(=O)(=O)c1cc2cc(C=O)sc2s1 | 188 to 189
C=CCO/N=C(\C(=O)OC)c1csc(N)n1 | 133 to 134
COC(=O)c1cc(CSc2ccccc2)cnc1C1=NC(C)(C(C)C)C(=O)N1 (stereo unspecified) | 135 to 138

SMILES | melting point [°C]
CSc1ccc(C(=O)CC(F)(F)F)cc1 | 118 to 120
CCC1(CC)c2cc(-c3nc4ccccc4s3)ccc2-c2ccc(N(c3cccc(Oc4ccc([N+](=O)[O-])cc4)c3)c3cccc(Oc4ccc([N+](=O)[O-])cc4)c3)cc21 | 200 to 201
N#CC(C#N)(CC=C(Br)Br)Cc1ccc(OC(F)(F)F)cc1 | 127
Cc1cc(COC2CCCO2)nc(N)n1 (stereo unspecified) | 109 to 110
CCOC(=O)c1ccc(C(OC(c2ccc(C(=O)OCC)cc2)c2ccc3c(c2)C(C)(C)CCC3(C)C)c2ccc3c(c2)C(C)(C)CCC3(C)C)cc1 (stereo unspecified) | 109 to 111
O=C(CC1=NCCN1)N1CCOc2ccc(S(=O)(=O)c3ccccc3)cc21 | 114 to 116
CC(=O)Nc1cc2c(cc1[N+](=O)[O-])OC(C)(C)C1OC21 (stereo unspecified) | 156 to 158
O=C1COc2cccc3nc4c(c(c23)N1Cc1ccccc1)CCCC4 | 166 to 168
Cc1ccc(S(=O)(=O)N2CCC(C#N)(c3ccc(Cl)cc3)CC2)cc1 | 202 to 206
CCOC(=O)[C@@H](CCC(=O)N1c2ccccc2C[C@H]1C(=O)OCC)NC(=O)[C@@H](N)CCCCNSc1ncccc1[N+](=O)[O-] | 95 to 102
CCN(CC)CCCNc1nnc(-c2ccc(F)c(F)c2Nc2ccc(I)cc2F)o1 | 116 to 118
CCc1cc(C#N)cc(C(=O)Nc2ccc(F)cn2)n1 | 184
O=C(Cc1ccccc1)c1ccc(SCC(F)(F)F)cc1 | 60 to 61
O=C(CN(Cc1ccccc1)c1c(C(=O)O)[nH]c2cc(Cl)cc(Cl)c12)c1ccccc1 | 266 to 267
CN(C(=O)OC(C)(C)C)c1cc(Oc2ccc(OCc3ccccc3)cc2)ccc1[N+](=O)[O-] | 108 to 110
CC(=O)c1cccc(NC(=O)c2ccc3oc(COCc4ccccc4)cc3c2)c1O | 92 to 94
COc1ccc(CN(C)CCOc2ccc(NC(=O)c3cccc4c(=O)cc(-c5ccccc5)[nH]c34)cc2)cc1OC | 175
CC(O)CNC1(F)C=CC(N)=C([N+](=O)[O-])C1 (stereo unspecified) | 97
COc1ccc(/C=C/CN2CCN(C3c4ccccc4CCc4ncccc43)CC2)cc1[N+](=O)[O-] (stereo unspecified) | 159 to 161
COc1ccc(S(=O)(=O)N(CCCN(C)C)c2ccc(Cl)cc2Cc2c(F)cccc2F)cc1OC | 134
CCOc1ccc(C2=NN(C3CCCCCC3)C(=O)[C@H]3CC=CC[C@@H]23)cc1OCC (relative stereo) | 92 to 93
O=C(Nc1nc(=O)n(S(=O)(=O)c2ccc(Cl)cc2)cc1F)c1ccc(Cl)cc1 | 169 to 172
NC(=O)CCCN(CCCC1CCCCC1)C(=O)Nc1ccccc1 | 104 to 106
Cc1cc(-c2nc3cccnn3c2-c2ccnc(NC(=O)NCCO)c2)ccc1F | 189 to 190

SMILES | melting point [°C]
CC1(C)OC(=O)c2ccc(CO)cc21 | 59 to 63
CC(C)(C)c1cc(C(=O)c2c[nH]c(SC#N)c2SC#N)cc(C(C)(C)C)c1O | 143 to 144
COc1cccc2c1CC=CC2 | 44.3 to 45
O=C(O)C1CSC(c2cc([N+](=O)[O-])ccc2OCCO[N+](=O)[O-])N1 (stereo unspecified) | 99 to 101
COc1ccc(OC)c(C2(C(C)(C)O)CCN(C)CC2)c1 | 139 to 140
O=C(NCC12CC3CC(CC(Cl)(C3)C1)C2)c1ccccc1Cl | 153
CC(C)n1nc(-c2c(-c3ccccc3)nc(N)nc2N2CCCC2)ccc1=O | > 300
CC(=O)Oc1ccc(Oc2ccc(NC(=O)Nc3cc(C(C)(C)C)on3)cc2)cc1 | 146
COc1cc2cc(CO)c(CO)c(-c3ccnc(-n4c(=O)cc(C(=O)N5CCN(CCO)CC5)c5ccccc54)c3)c2cc1OC | 150 to 153
Cn1cccc1CN1CCCC1=O | 44.5 to 47.5
O=C(N[C@H](Cc1ccc(C(F)(F)F)cc1)[C@@H](O)c1ccc(Oc2ccccc2)cc1)c1cccc2c1C=CCCC2 (racemic) | 191 to 192
OCc1cn(Cc2ccccc2)c(-c2ccc(OCc3ccccc3)cc2)n1 | 129 to 131
COc1cc2c(cc1OC)C(c1sc(N)nc1C)=NCC2 | 233 to 237
CCOC(=O)c1cccc2oc(C=O)cc12 | 88 to 89
CC(C)N(Cc1ccc(Cl)cc1)C(=O)Nc1ccccc1 | 109 to 111
CC(C)C1NCC(=O)N1CC(=O)NCC(N)=O (stereo unspecified) | 65 to 70
COc1cc2nc(SCc3ccccc3)nn2c(Cl)n1 | 140 to 141
CCCNc1cc(C(=O)OCC)cc(S(N)(=O)=O)c1Oc1ccccc1 | 150 to 151
C=C(C(=O)OC)c1ccc2c(=O)c3ccccc3ccc2c1 | 153 to 156
CCOC(=O)COc1ccc(C(=O)c2ccn[nH]2)c(Cl)c1Cl | 147 to 149
CCOC(=O)c1c(-c2ccccc2)c(-c2ccc(F)cc2)cn1C(C)C | 104 to 105
C[C@@H](N1CCN(S(=O)(=O)c2ccc([N+](=O)[O-])cc2)CC1)[C@](O)(Cn1cncn1)c1ccc(F)cc1F | 160 to 162
Cc1c(NC(=O)CC(C)(C)C)cc2c(c1C)OC(C)(C)C2c1ccc(Br)cc1 (stereo unspecified) | 171 to 172
OC(CCCN1CCc2c(c3cc(F)ccc3n2-c2ccc(F)cc2)C1)c1ccc(F)cc1 (stereo unspecified) | 145 to 149

SMILES | melting point [°C]
O=C(O)c1cc2c3c(ccc2[nH]1)OC[C@H](CO)O3 | 216 to 217
CCCCCN1C(=O)C2CC2(c2ccc(N)cc2)C1=O (stereo unspecified) | 113 to 115
Cc1ccccc1OS(=O)(=O)c1ccc(N2CCN(C)C2=O)cc1 | 157 to 158
Cc1cc2c(c(C)c1NC(=O)CC(C)(C)C)C(c1ccccc1)CO2 (stereo unspecified) | 158 to 159
COc1cc2c(cc1N1CCNCC1)N(C(=O)c1ccc(-c3ccc(-c4noc(C)n4)cc3C)cc1)CC2 | 153 to 155
CCOC(=O)c1c(C)nsc1NC(=O)NC | 187 to 189
Cc1cc(C)c(C(=O)c2ccccc2)c(OCC2CO2)c1 (stereo unspecified) | 72 to 74
CS(=O)(=O)Cc1c(C(=O)NN2CCCCC2)nn(-c2ccc(Cl)cc2Cl)c1-c1ccc(Cl)cc1 | 171
O=C(O)Cc1cn(C(=O)c2cncs2)c2ccc(Cl)cc12 | 175 to 180
c1ccc2c(CCCCN3CCc4c(sc5ccccc45)C3)c[nH]c2c1 | 113 to 115
CCOC(=O)C(C#N)(CCBr)c1cc(OC)c(OC)c(OC)c1 (stereo unspecified) | 76 to 77
CCOC(=O)C1=C(C)NC(=O)N(C(=O)OCC)C1c1ccccc1[N+](=O)[O-] (stereo unspecified) | 150 to 152
COCc1c[nH]c(-c2ccc(OCC(O)CO)cc2)n1 (stereo unspecified) | 154 to 156
Cc1nc(-n2cnn(CC3CC3(F)F)c2=O)sc1C(=O)NCc1cccnc1 (stereo unspecified) | 160 to 161
O=S(=O)(Cc1nc2ccc(Cl)cc2[nH]1)c1ccccn1 | 183 to 186
Cc1cccc(-c2ccc3c(C(N)=O)nn(-c4ccc(S(N)(=O)=O)cc4)c3c2)c1 | 261 to 263
CC1(C(=O)c2c[nH]c3ncc(-c4ccc(N5CCOCC5)cc4)nc23)CCCCC1 | 233 to 235
CC12CCCCC1CCC1C2CCC2(C)C(NCc3ccccc3)CCC12 (stereo unspecified) | 85.5 to 87.5
CCCn1c(=S)sc2c(=N)n(NC(=O)c3ccco3)cnc21 | 206
CC(=O)c1cn(C)cc(-c2cccc(Cl)c2)c1=O | 175 to 177
COC(=O)c1c(C(C)C)nc2c(c1-c1ccc(F)cc1)CCCN2 | 168 to 170
CN(C)C1CCc2c(c3ccccc3n2CCC(=O)O)C1 (stereo unspecified) | 106 to 108
CN1C(=O)CCC2(C)c3ccc(Sc4nccc5ccccc45)cc3CCC12 (stereo unspecified) | 196 to 199
O=C1Nc2ccccc2Oc2c1csc2Cl | 224 to 227
